What all share (format): functional, cell-based
Assay [1] has as its system T47D. As to the kind of experiment: Inhibition of [3H]putrescine transport by the compound was evaluated in T-47D human breast cancer cells.
In assay [2] the test system is T47D. As to the kind of experiment: Inhibition of [3H]spermidine transport by the compound was evaluated in T-47D human breast cancer cells.
Assay [3] deals with T47D. The assay can be described thus: Inhibition of [3H]spermine transport by the compound was evaluated in T-47D human breast cancer cells.
The next assay concerns ZR-75-1. As to the kind of experiment: Inhibition of [3H]spermine transport by the compound was evaluated in ZR-75-1 human breast cancer cells.

As usually defined, the Ki is a measure of affinity in units of concentration, obtained from inhibition or displacement. As for `NCCCNCCCC(NCCCN)C(=O)NCCSSCCNC(=O)C(CCCNCCCN)NCCCN` (stereo not drawn), the Ki in the assay on T47D [1] is 3.1 µM; with T47D [2], 12.6 µM; with T47D [3] it was 15.9 µM; with ZR-75-1, 4 µM.

As for `NCCCNCCCCNCCCN` [SPERMINE], the Ki in the assay on T47D [1] came to 0.65 µM; in the assay on T47D [2], 0.92 µM; in the assay on T47D [3], 2.7 µM; in the assay with ZR-75-1, 0.2 µM.

Turning to `NCCCCNCCCN` [SPERMIDINE], in the assay with T47D [2], the Ki came to 4.4 µM.

On to `NCCCN(CC#CCN(CCCN)CCCN)CCCN`, for which the values for the Ki in the assay with T47D [1], in the assay with T47D [2] and in the assay with T47D [3] were 2.6 µM, 25.6 µM and 12.8 µM, respectively.

`NCCCCN(CC#CCN(CCCN)CCCCN)CCCN`: the Ki worked out at 1.9 µM in the assay on T47D [1], 16.9 µM with T47D [2] and 27.7 µM with T47D [3].

`NCCCN(CCCN)Cc1ccc(CN(CCCN)CCCN)cc1`: the Ki in the assay on T47D [1] was 0.16 µM; with T47D [2], 1.5 µM; in the assay on T47D [3] it was 1.5 µM; in the assay with ZR-75-1, 0.7 µM.

In the case of `NCCCCN(CCCN)Cc1ccc(CN(CCCN)CCCCN)cc1`, the Ki with T47D [1] came out at 0.28 µM; in the assay on T47D [2], 2 µM; in the assay with T47D [3] it was 2.9 µM; in the assay with ZR-75-1, 0.24 µM.

In turn, `NCCCCN` [PUTRESCINE] displayed a Ki in the assay on T47D [1] of 7.4 µM.

As for `NCCCCN(C/C=C/CN(CCCN)CCCCN)CCCN`, the Ki in the assay with T47D [1] worked out at 0.1 µM; in the assay with T47D [2], 1.8 µM; in the assay with T47D [3] it was 1.5 µM.

In the case of `NCCCN(C/C=C/CN(CCCN)CCCN)CCCN`, the Ki was found to be 0.27 µM in the assay on T47D [1], 2 µM in the assay with T47D [2] and 1.6 µM in the assay with T47D [3].

Compound `NCCCN(CCCN)C(=O)CCC(=O)N(CCCN)CCCN` gave a Ki in the assay with ZR-75-1 of 1.7 µM.

In the case of `NCCCN(CCCN)CCCCN(CCCN)CCCN`, the inhibition constant (Ki) in the assay with T47D [1] worked out at 0.52 µM; with T47D [2], 2.4 µM; in the assay on T47D [3], 6.2 µM; with ZR-75-1, 0.56 µM.

Regarding `NCCCCN(CCCN)CCCCN(CCCN)CCCCN`, the Ki in the assay on T47D [1] amounted to 0.72 µM; in the assay with T47D [2] it was 4.9 µM; in the assay on T47D [3], 4.3 µM.
